Experimental findings from US9739734B2, “Methods and systems of detecting exocytosis of a target molecule from a population of cells” (THE MARINE […], priority 2013, dated 2017) are described below.

This assay relates to pancreatic islet. Kind of assay: Impedance analysis of a pancreatic islet for insulin exocytosis (single frequency, real-time). Format: cell-based. The text has this:
In one embodiment, the method can be used to measure exocytosis of a molecule from an islet of cells. […] In one embodiment, islets can be modeled by 4 passive elements as in the equivalent electric circuit, where RMEM and CMEM represent the sum of the plasma membrane (MEM) resistances (R) and capacitances (C), and RCYT and RINT represent the sum of cytosolic (CYT) and intercellular space (INT) resistances, for all cells in the islet, respectively (FIG. 1B). AC currents applied across a whole islet result in voltage drops across these 4 elements, which are dependent, in part, on the AC frequency and the impedance (Z) of these elements (V=I(ZR(MEM+CYT+INT)+ZC(MEM)). ZC(MEM) and ZR(MEM) are generally sensitive to the level of an applied secretagogue (e.g., glucose), which at stimulatory levels decrease the RMEM, via opening of ion channels, and increase CMEM, via surface area increase reflective of exocytosis. Separation of the measured AC voltage into real (in phase with current) and imaginary (out of phase with current) components for 2 different frequencies can provide direct determination of RMEM, CMEM, RCYT and RINT through generation of 4 separate equations.
In order to optimize the resolution for monitoring changes in CMEM, an appropriate AC current can be applied at selected frequencies where the measured voltage drop across CMEM is readily detectable (e.g., where the measured voltage drop cross CMEM changes the most) during exocytosis. […] CIP can provide visualization of the changes in plasma membrane capacitance (PMc) over the range of applied frequencies, and thus the frequencies (e.g., 2 frequencies) at which the largest changes (e.g., the two largest changes) in plasma membrane capacitance can be determined as optimal AC frequencies.
The two optimal AC frequencies are then applied simultaneously to islets, e.g., according to the block diagram in FIG. 2. […] The computer can be used to compute, track and store the values of the passive elements of the equivalent circuit corresponding to the islet being measured. […]

Regarding `[Cl-].[K+]` [KCl, potassium chloride], the “exocytosis of insulin from cells in the islet (shift in complex impedance plot)” value (25 mM KCl, before vs after addition, one frequency, FIG. 3) is given as “substantial exocytosis of insulin”. Moreover, the “change in whole islet capacitance (imaginary component of impedance)” value (KCl final concentration 25 mM, single frequency ~1250 Hz, time series, FIG. 4B) is “immediate change in whole islet capacitance”. Further, the “change in whole islet resistance (real component of impedance)” value (KCl final concentration 25 mM, single frequency, time series, FIG. 4A) was “not whole islet resistance”.
